Consider eight compounds from patent US20230279132A1, “TREATMENT OF B CELL MALIGNANCIES” (NOVARTIS AG, priority 2020, published 2023).

In one data set the test system is MCL. The following applies: cited from earlier work; for response rates: relapsed MCL, targeted therapies.
In another data set the test system is IL2. The experiment in a line: IL2 production in PBMC treated with lenalidomide. To be noted: 72 hr lenalidomide, PBMC with and without CD3+ cells (FIG. 8). The data set is classed as cell-based. How it is done:
(§1) Frozen PBMC were thawed, or fresh PBMCs were isolated. If T cells were depleted, PBMC were used for a positive depletion of CD3 using CD3 beads (Miltenyi #130-050-101). Cells were washed 1×, and incubated in unstimulated media (phenol red free/glutamax/hepes/anti-penicillin anti-streptomycin/FBS) with or without 3 μM, 1 μM or 10 μM Lenalidomide. Cells were incubated for 24 hrs or 72 hrs. The supernatant was taken and frozen for IL2 analysis. In one study, for the 72 hr culture, 100 pg/ml IL2 was added to the culture for the last 24 hrs. Primary NK cells were isolated the day of the co-culture setup. 100 μl of PBMC or pNK cells at the designated E:T ratios were transferred to the 96 well plate with the SUDHL4 cells and antibodies. The co-culture was incubated for 3 hrs or 4 hrs.

The test system of another data set is SUDHL4 cells. Kind of data set: in vitro ADCC assay (Calcein AM-labeled SUDHL4 cells) with PBMC, pNK or NK3.3 effector cells. The data set is classed as cell-based. The following applies: for improvement in VAY736-induced ADCC with lenalidomide: 72 hr lenalidomide treatment. Here is the method:
NK3.3 cells were collected, washed 1×, and incubated in starvation media with or without 3 uM lenalidomide. Cells were incubated for 48 hrs or 72 hrs, collected, spun down, and resuspended in assay buffer. 100 μl of NK3.3 cells at the designated E:T ratios were transferred to a 96 well plate with SUDHL4 cells and antibodies. The co-culture was incubated for 2 hrs.
as §1
A total of 10e6 or 4e6 SUDHL4 cells were incubated with Calcein AM for 60 minutes. Cells were then washed 2× with 30 ml of media. Cells were counted, and resuspended to 0.15 e6/ml or 0.2 e6/ml, and in one study 40 ng/ml of IL2 was added. A total of 50 μl cells were then transferred to a 96 well plate. […] Effector cells were then added to the 96 well plate. The plate was then spun in a centrifuge without the brake at 200×g for 4 min, and the co-culture was incubated for 2 hrs, 3 hrs or 4 hrs. The plate was then spun without the brake at 1500 RPM for 4 min. 100 μl of the supernatant was moved to black 96 well plates (Corning, #3904) and fluorescence was recorded with a PerkinElmer Envision plate reader.

The subject of a further data set is DLBCL cell line SUDHL4. The experiment in a line: in vivo DLBCL model: SUDHL4 implanted subcutaneously into SCID mice. The following applies: 5 mg/kg or 50 mg/kg VAY736 intravenously weekly. The source says: Vehicle and rituximab were used as controls.
Data set [1] concerns B cells. The data set is classed as in vivo, cynomolgus monkeys. Here is the method:
(§2) A rising single i.v. dose range finding (DRF), toxicity and TK/PD study and three repeated dose toxicity studies were performed with ianalumab in cynomolgus monkeys. B-cell levels were evaluated in the studies.

A further data set has as its system mature B cell. Kind of data set: repeat dose toxicity study in mice: healthy B-cell levels. It counts as in vivo, CD-1 mice. Here is the method:
CD-1 mice were administered 0 mg/kg or 100 mg/kg of ianalumab by intravenous administration weekly for 13 weeks, followed by an 11 week recovery period.

The next data set addresses T1, BAFF-R (Homo sapiens, UniProt Q96RJ3).
T1 construct: from tissue
The experiment in a line: Phase Ib study CVAY736Y2102: tissue receptor occupancy. It counts as in vivo. The following applies: VAY736 doses of 3 mg/kg or above, in combination with ibrutinib.

The next data set deals with BAFF. Kind of data set: Phase Ib study CVAY736Y2102: free BAFF. The following applies: VAY736 in combination with ibrutinib. It counts as in vivo, human.
For data set [2], the system named is B cells. The experiment in a line: three repeated dose toxicity studies. It counts as in vivo, cynomolgus monkeys. How it is done:
as §2

A further data set relates to DLBCL. To be noted: cited from earlier work.

Like-named read-outs stand apart in the source and are kept apart here.

Take `CC(C)C[C@H](NC(=O)[C@H](Cc1ccccc1)NC(=O)c1cnccn1)B(O)O` [bortezomib]: the response rates result with MCL was “improved response rates”.

On to `C=CC(=O)N1CCC[C@@H](n2nc(-c3ccc(Oc4ccccc4)cc3)c3c(N)ncnc32)C1` [ibrutinib], for which the “treatment-related adverse effects compared to temsirolimus” value in the data set on MCL (Phase III study) is listed as “fewer treatment-related adverse effects”.

Consider `Nc1cccc2c1CN(C1CCC(=O)NC1=O)C2=O` (stereo not drawn) [lenalidomide], for which, in the data set on IL2, the “IL2 production in PBMC” value is recorded as “IL2 produced by lenalidomide treatment by T cells”. The ORR in the data set on MCL (heavily pre-treated population, Phase II study EMERGE) is 28%. For the same compound, in the data set on SUDHL4 cells (NK3.3 effector cells, E:T 20:1 and 7:1, 72 hr and 48 hr pretreatment (FIGS. 5, 6)), the “ADCC with lenalidomide pretreatment” value was “Slight increases in ADCC”. Also, in the data set with SUDHL4 cells (NK3.3 effector cells, more prominent with 72 hr pretreatment at E:T 20:1 (FIG. 2A-2B)), the “VAY736-induced ADCC with addition of lenalidomide” value is recorded as “Increases in VAY736-induced ADCC”. In addition, the “VAY736-induced ADCC with lenalidomide pretreatment” value in the data set on SUDHL4 cells (PBMC effector cells, 24 hrs pretreatment, E:T 2:1) is reported as “only showed an enhancement at the highest concentration”; in the data set with SUDHL4 cells (PBMC effector cells, 24 hrs pretreatment, E:T 10:1), “enhanced VAY736-induced ADCC”; with SUDHL4 cells (PBMC effector cells, 24 hrs pretreatment, E:T 20:1) it was “only a slight enhancement”; with SUDHL4 cells (pNK cells isolated from PBMC pretreated 24 hrs, more so with 10:1 and 20:1), “enhanced VAY736-induced ADCC”; with SUDHL4 cells (pNK cells, 72 hr Len pretreatment, E:T 1:1 and 1:3), “enhanced VAY736-induced ADCC”. In addition, the “improvement in VAY736-induced ADCC with lenalidomide” value is listed as “evident” with SUDHL4 cells (PBMC effector cells, E:T 2:1) and “less pronounced” with SUDHL4 cells (PBMC effector cells, E:T 6:1). In addition, the “VAY736-induced ADCC with lenalidomide” value with SUDHL4 cells (PBMC effector cells, 72 hr, E:T 3:1, largely dose-independent, hampered with IL2 stimulation) is “increased VAY736-induced ADCC”. Besides, the “dependence of the ADCC enhancement by lenalidomide on CD3+ T cells” value in the data set on SUDHL4 cells (PBMC vs CD3+ depleted PBMC, 72 hr) is listed as “dependent on the presence of CD3+ T cells”. The “VAY736-dependent percent specific lysis of SUDHL4 cells on addition of lenalidomide” value in the data set on SUDHL4 cells (various effector cells and treatment conditions) is “enhanced”.

With `CO[C@H]1C[C@@H]2CC[C@@H](C)[C@@](O)(O2)C(=O)C(=O)N2CCCC[C@H]2C(=O)O[C@H]([C@H](C)C[C@@H]2CC[C@@H](OC(=O)C(C)(CO)CO)[C@H](OC)C2)CC(=O)[C@H](C)/C=C(\C)[C@@H](O)[C@@H](OC)C(=O)[C@H](C)C[C@H](C)/C=C/C=C/C=C/1C` [temsirolimus], the response rates result in the data set on MCL is “improved response rates”.

“VAY736: non-fucosylated human IgG1 kappa anti-BAFFR antibody with enhanced ADCC; heavy chain SEQ ID NO: 9, light chain SEQ ID NO: 10”: in the data set on DLBCL cell line SUDHL4, the “tumor growth compared to the vehicle control (tumor volume measurements over time)” value was “significantly slowed tumor growth”. Moreover, the tolerability result with B cells [1] (cynomolgus monkey, in vivo) is “well tolerated”. In addition, in the data set on B cells [1] (single i.v. dose), the “dose that induced depletion of B cells” value is ≥ 0.4 mg/kg. Besides, in the data set with mature B cell (100 mg/kg intravenous weekly for 13 weeks), the “mature B cell depletion” value is 70-90%. The “B cell levels during the recovery period” value in the data set on mature B cell (11 week recovery period after 100 mg/kg weekly for 13 weeks) was “recovered”. Also, the tissue receptor occupancy with BAFF-R is > 99%. Besides, the “ADCC in the presence of VAY736” value in the data set on SUDHL4 cells (effector cells PBMC, pNK cells, NK3.3 cell line) was “potent ADCC”. Moreover, the “VAY736-dependent specific lysis of SUDHL4 cells, dose dependence” value in the data set with SUDHL4 cells (various effector cells) was “dose-dependent”. Besides, the “free BAFF” value in the data set on BAFF is on record as “accumulated to steady state with no dose relationship”. In addition, the B cell depletion entry in the data set on B cells [2] is “B cell depletion was observed at all dose levels”.

For blinatumomab: bispecific antibody, in the data set on DLBCL (DLBCL), the response rates is on record as 35-50%.

Regarding brentuximab vedotin, the ORR in the data set on DLBCL (CD30+ relapsed DLBCL) is 44%.

polatuzumab vedotin: the ORR with DLBCL (in combination with rituximab and bendamustine) was 70%.
